Experiment [1] relates to 5′-Cy5-U20 RNA. Nature of the experiment: Gel mobility (band) shift assay. It is filed as binding. The settings on record: 66.6–530 µM FAM-labeled sequence, 5′-Cy5-U20 RNA 26.6 µM, MES-TEA buffer pH 6, 12% native polyacrylamide gel. The procedure:
The gel was cropped at the edges for clarity. […] Spectra were recorded in 100 mM MES-TEA buffer (pH 6). d Plot of the change in CD signal at 266 nm as a function of increasing concentrations of depsipeptide 14. Red and blue colors of the filled circles correspond to curves of the same color in panel (c). […] […] An addition of 1.25 µL of glycerol brought the sample volume to a total of 3.75 µL. Samples were loaded onto a 12% native polyacrylamide gel, run at 100 V for 90 min, and imaged using Azure Biosystems c430.

The subject of experiment [2] is RNA duplex 1 (5′-rCrGrCrUrArArArUrCrG-3′ & 5′-rCrGrArUrUrUrArGrCrG-3′). Put plainly: RNA thermal denaturation (Tm) by UV hyperchromicity at 260 nm with synthetic peptides/depsipeptides, RNA duplex 1. It is filed as binding. The settings on record: for RNA duplex 1 Tm: observed Tm, peptide/depsipeptide 80 mM (so in the source), pH 7.0, mean ± SD; for RNA duplex 1 ΔTm: peptide/depsipeptide 80 μM, pH 7.0, 10 mM phosphate, 100 mM NaCl.

Non-standard residues stand in square brackets, D forms with d. Residues, ends and D or L forms follow the SMILES beside them. *: point of attachment. 5FAM = O=C1OC2(c3ccc(O)cc3Oc3cc(O)ccc32)c2ccc(C(=O)*)cc21; Dab = NCC[C@H](N)C(=O)O; Lac = C[C@H](O)C(=O)O

As to `C[C@H](NC(=O)CNC(=O)c1ccc2c(c1)C(=O)OC21c2ccc(O)cc2Oc2cc(O)ccc21)C(=O)N[C@@H](CCN)C(=O)N[C@@H](CCCCN)C(=O)N[C@@H](C)C(=O)N[C@@H](CCN)C(=O)N[C@@H](CCCCN)C(=O)N[C@@H](C)C(=O)N[C@@H](CCN)C(=O)N[C@@H](CCCCN)C(=O)N[C@@H](C)C(=O)N[C@@H](CCN)C(=O)N[C@@H](CCCCN)C(=O)N[C@@H](C)C(=O)N[C@@H](CCN)C(=O)N[C@@H](CCCCN)C(N)=O` [compound 12, 5-FAM-Gly-Ala-Dab-Lys-Ala-Dab-Lys-Ala-Dab-Lys-Ala-Dab-Lys-Ala-Dab-Lys NH2] (5FAM-GA[Dab]KA[Dab]KA[Dab]KA[Dab]KA[Dab]K-NH2), the “band shift of RNA in gel mobility shift assay” value in experiment [1] was “concentration-dependent band shift”. Besides, in experiment [2], the “RNA duplex 1 Tm” value was 54.4 ± 0.6 °C and the “RNA duplex 1 ΔTm” value came out at 10.6 °C.

Regarding `C[C@H](NC(=O)CNC(=O)c1ccc2c(c1)C(=O)OC21c2ccc(O)cc2Oc2cc(O)ccc21)C(=O)N[C@@H](CCN)C(=O)N[C@@H](CCCCN)C(=O)N[C@@H](C)C(=O)N[C@@H](CCN)C(=O)N[C@@H](CCCCN)C(=O)N[C@@H](C)C(=O)N[C@@H](CCN)C(=O)N[C@@H](CCCCN)C(=O)O[C@@H](C)C(=O)N[C@@H](CCN)C(=O)N[C@@H](CCCCN)C(=O)N[C@@H](C)C(=O)N[C@@H](CCN)C(=O)N[C@@H](CCCCN)C(N)=O` [compound 13, 5-FAM-Gly-Ala-Dab-Lys-Ala-Dab-Lys-Ala-Dab-Lys-lac-Dab-Lys-Ala-Dab-Lys NH2] (5FAM-GA[Dab]KA[Dab]KA[Dab]K[Lac][Dab]KA[Dab]K-NH2), in experiment [1], the “band shift of RNA in gel mobility shift assay” value was “concentration-dependent band shift”. In addition, in experiment [2], the “RNA duplex 1 Tm” value worked out at 56.0 ± 0.8 °C and the “RNA duplex 1 ΔTm” value came out at 12.2 °C.

The values above are taken from publication PMC7305224, “Mutually stabilizing interactions between proto-peptides and RNA” (Nature Communications, 2020).
